From patent publication US4435391A, “Dibenzoxazepine derivative, and pharmaceutical composition comprising the same” (Chugai Seiyaku Kabushiki Kaisha, priority 1980, dated 1984)
Read-outs that look alike come from different tables or passages of the source.

Assays:
[1] = system: cholesterol (TC) level of plasma; test: Plasma cholesterol (TC) in Triton-injected mice (Experiment 2); assay type: in vivo, mice of ddY strain; conditions: Table 2, 150 mg/kg immediately and 8 hours after Triton WR-1399 500 mg/kg i.v., blood drawn 24 h after Triton; for inhibition in vivo: Mus musculus, iv, read-out: Percent Reduction TC (x ± S.E.)
Protocol: (§1) The mice of ddY strain weighing between 25 and 30 g were fasted overnight and then Triton WR-1399(500 mg/kg) (Ruger Chemicals Co.) was intravenously injected into the mice. Immediately and 8 hours after the injection, each mouse was administered 150 mg/kg of a test compound of this invention as suspended in 1% aqueous methylcellulose.
(§2) 24 Hours after the injection of Triton, the blood was drawn from the heart. The cholesterol (TC) and triglyuride (TG) levels of plasma were determined with RaBASuper (Chugai Seiyaku K.K., Japan).
(§3) As a positive control, chlofibrate were used.

[2] = system: triglyuride (TG) level of plasma; test: Plasma triglyceride (TG) in Triton-injected mice (Experiment 2); assay type: in vivo, mice of ddY strain; conditions: Table 2, 150 mg/kg immediately and 8 hours after Triton WR-1399 500 mg/kg i.v., blood drawn 24 h after Triton; for inhibition in vivo: Mus musculus, iv, read-out: Percent Reduction TG (x ± S.E.)
Protocol: as §1, §2, §3

[3] = system: lipid peroxide level (TBA) of blood; test: Lipid peroxide (TBA) level of blood in alloxan-treated mice (Experiment 1); assay type: in vivo, male mice of ddY strain; conditions: Table 1, 300 mg/kg orally, 22 h after alloxan 75 mg/kg i.v., blood drawn 48 h after alloxan, vs untreated mice; for inhibition in vivo at 300 mg/kg: Mus musculus, po, read-out: Percent Reduction TBA (x ± S.E.)
Protocol: (§4) Male mice of ddY strain weighing between 25 and 30 g were divided into groups of 10 members each and administered intravenously 75 mg/kg of alloxan. Twenty-two hours later, each mouse was administered orally 300 mg/kg of a test compound of this invention as suspended in 1% gum arabic. […] The lipid peroxide level (TBA) of blood was determined with Lipoperoxide-Test Wako (Wako Pure Chemical Industries, Ltd., Japan). The level of blood sugar (BG) was determined with New Blood Sugar Test (Berlinger Mannheim AG., West Germany). […] As a positive control, tocopherol was used.

[4] = system: platelets (platelet rich plasma); test: Inhibition of platelet aggregation in platelet rich plasma (Experiment 3); assay type: cell-based, SD strain rats; conditions: for inhibition at 100 µM: Rattus norvegicus, Platelet
Protocol: Platelet rich plasma samples were prepared from the blood of SD strain rats, and to 0.5 ml of the samples, test compounds in the form of a solution in dimethyl sulfoxide (DMSO) were added in such an amount that the concentration of the compounds in the mixture was 1×10^-4 M. The assay media containing aspirin were used as a control. After incubation for one minute, arachidonic acid, collagen and adenosine diphosphate (ADP) were added to the mixture in concentrations of 1×10^-4 M, 1.5×10^-3 M and 1×10^-6 M, respectively, to aggregate the platelets. The aggregation level was determined with an aggregometer. CORNING-EEL MODEL 16P (Manufactured by Evans Electro Selenium Ltd.) and the percent inhibition of platelets was calculated from the following equation: [formula]

[5] = system: level of blood sugar (BG); test: Blood sugar (BG) level in alloxan-treated mice (Experiment 1); assay type: in vivo, male mice of ddY strain; conditions: Table 1, 300 mg/kg orally, 22 h after alloxan 75 mg/kg i.v., blood drawn 48 h after alloxan, vs untreated mice
Protocol: as §4

[6] = Table 3 (own numbering), compound 1×10^-4 M, aggregation by ADP 1×10^-6 M, read-out: Percent Inhibition of Aggregation, ADP
[7] = Table 3 (own numbering), compound 1×10^-4 M, aggregation by arachidonic acid 1×10^-4 M, read-out: Percent Inhibition of Aggregation, Arachidonic acid
[8] = Table 3 (own numbering), compound 1×10^-4 M, aggregation by collagen 1.5×10^-3 M, read-out: Percent Inhibition of Aggregation, Collagen
[9] = Table 3 (own numbering), compound 1×10^-4 M, aggregation by ADP 1×10^-6 M
[10] = Table 3 (own numbering), compound 1×10^-4 M, aggregation by arachidonic acid 1×10^-4 M
[11] = Table 3 (own numbering), compound 1×10^-4 M, aggregation by collagen 1.5×10^-3 M

Row | Compound | inhibition in vivo [1] [%] | inhibition in vivo [2] [%] | inhibition in vivo at 300 mg/kg [3] [%] | inhibition at 100 µM [4, 6] [%] | inhibition at 100 µM [4, 7] [%] | inhibition at 100 µM [4, 8] [%] | also measured
1 | CCOC(=O)C(C)(C)Oc1ccc(Cl)cc1 [chlofibrate, reference compound] | 13.8 | 9.5 |  |  |  |  | 
2 | CCCCOC(=O)c1ccc2c(c1)N=Cc1cccc(OC)c1O2 [Compound 12] | 17.4 | 19.3 | 19.7 | 35 | 43 | 37 | 
3 | 11-methyl-3-methoxydibenz[b,f][1,4]oxazepine-8-carboxylic acid [Compound 7 (Table 1)] |  |  |  |  |  |  | Percent Reduction TBA (x ± S.E.) [3]: 61.1%; Percent Reduction TG (x ± S.E.) [2]: 17.8%
4 | ethyl 11-methyl-3-methoxydibenz[b,f][1,4]oxazepine-8-carboxylate [Compound 5 (Table 1)] |  |  |  |  |  |  | Percent Reduction TBA (x ± S.E.) [3]: 35.2%; Percent Reduction TC (x ± S.E.) [1]: 18.4%; Percent Reduction TG (x ± S.E.) [2]: 18.7%; Percent Inhibition of Aggregation, ADP [4, 9]: 45%; Percent Inhibition of Aggregation, Arachidonic acid [4, 10]: 63%; Percent Inhibition of Aggregation, Collagen [4, 11]: 50%
5 | Cc1ccc2c(c1)C=Nc1cc(C(=O)O)ccc1O2 [Compound 15] | 17.7 | 19.4 | 23.8 |  |  |  | Percent Reduction BG (x ± S.E.) [5]: 16.5%
6 | CCOC(=O)c1ccc2c(c1)N=C(C)c1cccc(OC)c1O2 [Compound 5 (Table 3)] |  |  |  | 35 | 45 | 30 | 
7 | Cc1c(C)c2c(c(C)c1O)CCC(C)(CCCC(C)CCCC(C)CCCC(C)C)O2 (stereo not drawn) [α-tocopherol, reference compound] |  |  | 51.7 |  |  |  | 
8 | CCOC(=O)c1ccc2c(c1)N=C(CC)c1ccc(OC)cc1O2 [Compound 6] | 19.5 | 19.6 | 54 |  |  |  | 
9 | CCOC(=O)c1ccc2c(c1)N=Cc1ccc(C)cc1O2 [Compound 3] | 17.8 | 18.7 | 23 |  |  |  | Percent Reduction BG (x ± S.E.) [5]: 16.5%
10 | CCOC(=O)c1ccc2c(c1)N=C(CC)c1ccc(C)cc1O2 [Compound 4 (Table 1)] |  |  |  | 50 | 60 | 47 | 
11 | COC(=O)c1ccc2c(c1)N=Cc1cccc(OC)c1O2 [Compound 10] | 20.7 | 24.5 | 50.3 | 36 | 38 | 34 | 
12 | CCOC(=O)c1ccc2c(c1)N=C(c1ccccc1)c1ccc(OC)cc1O2 [Compound 18 (Table 1)] |  |  |  | 40 | 50 | 43 | 
13 | CCOc1cccc2c1Oc1ccc(C(=O)O)cc1N=C2 [Compound 14] | 19.5 | 21.3 | 63.4 |  |  |  | Percent Reduction BG (x ± S.E.) [5]: 18.7%
14 | CC1=Nc2cc(C(=O)O)ccc2Oc2cc(C)ccc21 [Compound 8] | 18.6 | 19.3 | 52 |  |  |  | Percent Reduction BG (x ± S.E.) [5]: 16.3%
15 | CCOC(=O)c1ccc2c(c1)N=C(C=Cc1ccccc1)c1cc(OC)ccc1O2 [Compound 17] | 17.4 ± 3.5 | 19.7 ± 4.5 | 34.4 ± 2.9 |  |  |  | 
16 | CCOC(=O)c1ccc2c(c1)N=C(C)c1ccc(C)cc1O2 [Compound 3 (Table 3)] |  |  |  | 50 | 55 | 43 | 
17 | O=C(O)c1ccc2c(c1)N=Cc1cc(Cl)ccc1O2 [Compound 13] | 14.5 | 15.2 | 18.3 |  |  |  | Percent Reduction BG (x ± S.E.) [5]: 10.4%
18 | CCCOC(=O)c1ccc2c(c1)N=Cc1cccc(OC)c1O2 [Compound 11] | 19.2 | 21.3 | 38.6 | 43 | 42 | 40 | 
19 | CCC1=Nc2cc(C(=O)O)ccc2Oc2cc(OC)ccc21 [Compound 9] | 17.9 | 18.5 | 67.7 |  |  |  | Percent Reduction BG (x ± S.E.) [5]: 18.4%
20 | CCOC(=O)c1ccc2c(c1)N=C(C)c1cccc(C)c1O2 [Compound 4 (Table 3)] |  |  |  | 51 | 60 | 48 | 
21 | CCOC(=O)c1ccc2c(c1)N=C(C=Cc1ccccc1)c1cc(OC)ccc1O2 [Compound 17 (Table 1)] |  |  |  | 46 | 48 | 45 | 
22 | ethyl 4-methoxydibenz[b,f][1,4]oxazepine-8-carboxylate [Compound 6 (Table 3)] |  |  |  |  |  |  | Percent Reduction TBA (x ± S.E.) ([3]; listed as 1): 12.3%; Percent Reduction TBA (x ± S.E.) ([3]; listed as 2): 25.5%; Percent Reduction BG (x ± S.E.) ([5]; listed as 1): 15.5%; Percent Reduction BG (x ± S.E.) ([5]; listed as 2): 22.4%; Percent Reduction TC (x ± S.E.) ([1]; listed as 1): 19.3%; Percent Reduction TC (x ± S.E.) ([1]; listed as 2): 21.4%; Percent Reduction TG (x ± S.E.) ([2]; listed as 1): 20.8%; Percent Reduction TG (x ± S.E.) ([2]; listed as 2): 23.5%; Percent Inhibition of Aggregation, ADP [4, 9]: 20%; Percent Inhibition of Aggregation, Arachidonic acid [4, 10]: 40%; Percent Inhibition of Aggregation, Collagen [4, 11]: 25%
23 | CCOC(=O)c1ccc2c(c1)N=C(c1ccccc1)c1ccc(OC)cc1O2 [Compound 18] | 18.4 ± 2.9 | 21.3 ± 3.2 | 41.7 ± 3.2 |  |  |  | 
24 | CC(=O)Oc1ccccc1C(=O)O [aspirin, reference compound] |  |  |  |  |  |  | inhibition at 100 µM ([4]; read-out: Percent Inhibition of Aggregation, ADP): 17%; inhibition at 100 µM ([4]; read-out: Percent Inhibition of Aggregation, Arachidonic acid): 100%; inhibition at 100 µM ([4]; read-out: Percent Inhibition of Aggregation, Collagen): 8%
25 | CCOC(=O)c1ccc2c(c1)N=C(CC)c1cc(OC)cc(OC)c1O2 [Compound 16 (Table 1)] |  |  |  | 44 | 52 | 47 | 
26 | COc1ccc2c(c1)Oc1ccc(C(=O)O)cc1N=C2C [Compound 7] | 17.3 | 18.8 | 64.8 |  |  |  | Percent Reduction BG (x ± S.E.) [5]: 15.7%
27 | CCOC(=O)c1ccc2c(c1)N=C(c1cccc(C)c1)c1ccc(OC)cc1O2 [Compound 19] | 20.1 | 19.7 | 34.9 | 39 | 45 | 41 | 
28 | CCOC(=O)c1ccc2c(c1)N=C(CC)c1cc(OC)cc(OC)c1O2 [Compound 16] | 16.4 | 17.8 | 28.5 |  |  |  | 
29 | CCCC1=Nc2cc(C(=O)OCC)ccc2Oc2cc(C)ccc21 [Compound 20] | 16.5 | 17.4 | 39.6 | 47 | 60 | 50 | 
